Experimental data taken from the NIST ThermoML archive (doi:10.1016/j.jct.2008.10.005).
Numbers after ± are expanded uncertainties.

What was measured:
[1] = Crystal; DTA
[2] = Molar enthalpy of transition or fusion; conditions: Crystal; DSC

| SMILES | Normal melting temperature [1] [°C] | Molar enthalpy of transition or fusion [2] [kcal/mol] |
| --- | --- | --- |
| Clc1cccc(Cl)c1 [1,3-dichlorobenzene] | -24.90 ± 0.53 | 3.01 ± 0.203 |
| c1ccc2ccccc2c1 [naphthalene] | 80.10 ± 0.53 | 4.54 ± 0.215 |
| Clc1ccccc1Cl [1,2-dichlorobenzene] | -17.30 ± 0.53 | 2.96 ± 0.203 |
| Clc1ccc(Cl)cc1 [1,4-dichlorobenzene] | 53.00 ± 0.53 | 4.35 ± 0.213 |
